Laboratory results: publication PMC9959048, “Lipidation of Naturally Occurring α-Helical Antimicrobial Peptides as a Promising Strategy for Drug Design” (International Journal of Molecular Sciences, 2023)
Values after ≈ are worked out from the molar mass of the structure shown. Residues, ends and D or L forms follow the SMILES beside them. *: point of attachment. Decanoyl = CCCCCCCCCC(=O)*; Octanoyl = CCCCCCCC(=O)*

Assays:
[1] = tested on: S. aureus PCM2054; format: cell-based, Staphylococcus aureus; conditions: Mueller–Hinton broth, inoculum 5 × 10^5 CFU/mL, 24 h, 37 °C, absorbance 600 nm, triplicate
Experimental: (§1) The evaluation of the antimicrobial activity of the synthesized lipopeptides was performed against the following reference bacterial and fungal strains: Staphylococcus aureus PCM 1650, Staphylococcus aureus PCM 2054, Staphylococcus epidermidis PCM 521, Staphylococcus epidermidis PCM 2118, Escherichia coli PCM 2057, Candida albicans PCM 2566, Candida glabrata CCM 8270, Candida krusei CCM 8271, Candida parapsilosis CCM 8260.
(§2) For the initial cultivation of the bacteria and fungi, Luria-Bertani broth (LB, Biomaxima, Lublin, Poland) and Sabouraud Dextrose broth (SB, Biomaxima, Lublin, Poland) were used, respectively. Antimicrobial properties of the compounds were analyzed through the determination of MIC (minimal inhibitory concentrations) by my means of the serial micro-dilution technique according to the guidelines of Clinical & Laboratory Standard Institute (CLSI) established for aerobic bacteria and yeasts.
(§3) According to the procedures, Mueller–Hinton broth (MHB) was used as the working medium for the analysis of the bacterial susceptibility, while RPMI-1640 (with L-glutamine, without sodium bicarbonate) growth medium buffered with MOPS (morpholinepropanesulfonic acid) and supplemented with 2% glucose was used for the experiments with the fungi.
(§4) The experiments were carried out for 24 h at 37 and 35 °C for the bacteria and fungi, respectively. Then, the absorbance was measured at 600 nm for each well of the 96-well plate using a microplate reader (Sunrise TM, Tecan Trading AG, Männedorf, Switzerland). Based on the obtained results, the degree of inhibition of the growth of microorganisms (expressed in %) in the presence of the tested compounds range was determined with respect to the control probes. Inoculated wells without peptide were treated as a positive control (100% growth), and the wells containing working medium only were defined as a negative control (0% growth). All measurements were repeated in triplicate.

[2] = tested on: S. epidermidis PCM2118; format: cell-based, Staphylococcus epidermidis; conditions: Mueller–Hinton broth, inoculum 5 × 10^5 CFU/mL, 24 h, 37 °C, absorbance 600 nm, triplicate
Experimental: as §1, §2, §3, §4

[3] = tested on: S. epidermidis PCM521; format: cell-based, Staphylococcus epidermidis; conditions: Mueller–Hinton broth, inoculum 5 × 10^5 CFU/mL, 24 h, 37 °C, absorbance 600 nm, triplicate
Experimental: as §1, §2, §3, §4

[4] = tested on: E. coli PCM2057; format: cell-based, Escherichia coli; conditions: Mueller–Hinton broth, inoculum 5 × 10^5 CFU/mL, 24 h, 37 °C, absorbance 600 nm, triplicate
Experimental: as §1, §2, §3, §4

[5] = tested on: C. albicans PCM2566; format: cell-based, Candida albicans; conditions: RPMI-1640 with MOPS and 2% glucose, inoculum 5 × 10^3 CFU/mL, 24 h, 35 °C, absorbance 600 nm, triplicate
Experimental: as §1, §2, §3, §4

[6] = tested on: C. glabrata CCM8270; format: cell-based, Candida glabrata; conditions: RPMI-1640 with MOPS and 2% glucose, inoculum 5 × 10^3 CFU/mL, 24 h, 35 °C, absorbance 600 nm, triplicate
Experimental: as §1, §2, §3, §4

[7] = tested on: C. krusei CCM8271; format: cell-based, Candida krusei; conditions: RPMI-1640 with MOPS and 2% glucose, inoculum 5 × 10^3 CFU/mL, 24 h, 35 °C, absorbance 600 nm, triplicate
Experimental: as §1, §2, §3, §4

[8] = tested on: C. parapsilosis CCM 8260; format: cell-based, Candida parapsilosis; conditions: RPMI-1640 with MOPS and 2% glucose, inoculum 5 × 10^3 CFU/mL, 24 h, 35 °C, absorbance 600 nm, triplicate
Experimental: as §1, §2, §3, §4

[9] = tested on: human breast cancer cells (MCF-7 line, ATCC); assay: MTT cytotoxicity assay; format: cell-based; conditions: IC50 against HaCaT divided by IC50 for MCF-7
Experimental: (§5) The prepared plates were further incubated for 48 h. […] The control cell viability was assumed to be 100%. Three independent experiments were carried out in three repetitions.

[10] = tested on: human prostate cancer cells (PC3 line, ATCC); assay: MTT cytotoxicity assay; format: cell-based; conditions: IC50 against HaCaT divided by IC50 for PC3
Experimental: as §5

[11] = tested on: POPC liposomes; assay: CD, α-helix content in POPC liposomes; format: physicochemical; conditions: 25 °C, peptide 0.15 mg/mL, 1.3 mM POPC; for α-Helix percentage, POPC: from ellipticity at 222 nm
Experimental: (§6) Large unilamellar vesicles (LUV) were obtained by extrusion of MLV liposomes through polycarbonate membrane filters with a pore diameter of 100 nm (Whatman International Ltd., Kent, UK) using a mini-extruder (Avanti Polar Lipids, Inc., Alabaster, AL, USA).
(§7) CD experiments were carried out at 25 °C using a Jasco J-815 spectropolarimeter in the wavelength range 185–260 nm. The concentration of the lipopeptides was 0.15 mg/mL. The CD spectra were recorded in water, PBS (pH 7.4), 1.3 mM POPC and 1.3 mM POPG. The results are plotted as the mean molar ellipticity per one amino acid residue (MRME, deg cm^2 dmol^−1) as a function of the wavelength (nm). Additionally, we performed a conformational analysis of the selected compounds in the presence of S. aureus cells. […] The mixtures were then incubated for 2 h before recording the CD spectra.
(§8) The percentage of the α-helical structure was calculated based on the mean molar ellipticity at 222 nm using the formula: fH=θ222−3000/−36000−3000·100% where θ222 corresponds to the value of the mean molar ellipticity at a wavelength of 222 nm.

[12] = tested on: POPG liposomes; assay: CD, α-helix content in POPG liposomes; format: physicochemical; conditions: 25 °C, peptide 0.15 mg/mL, 1.3 mM POPG, from ellipticity at 222 nm
Experimental: as §6, §7, §8

[13] = molecular target: POPG LUVs; assay: Isothermal titration calorimetry, binding to POPG LUVs; conditions: ITC, 25 °C, 0.05 or 0.07 mM peptide titrated with 1.3 or 1.8 mM POPG LUVs; one set of sites model (C10-LL-I: two sets of sites, first line)
Experimental: as §6
The thermodynamic parameters of the interactions of the lipopeptides with POPG and POPC liposomes were determined by isothermal titration calorimetry (ITC). Measurements were performed at 25 °C using an AutoITC microcalorimeter (MicroCal Inc., Northampton, MA, USA) with a 1.4491 mL sample and reference cells. The experiment consisted in the titration of a buffered peptide solution with a concentration of 0.05 and/or 0.07 mM with a buffered solution containing POPG or POPC LUVs with a lipid concentration of 1.3 and 1.8 mM (10.02 µL; 29 injections, 2 µL for the first injection only), as it was described previously. The result of the titration was a thermogram showing a series of peaks corresponding to the titration steps. A titration curve was obtained after integration of the peak areas. The obtained isotherms were fitted to the “one set of sites” or “two sets of sites” models available in the ORIGIN 7.0 (MicroCal Inc., Northampton, MA, USA), which made it possible to determine the enthalpy (ΔH), the binding constant (KITC) and the stoichiometry (N) of the interactions between the lipopeptide and the lipids. The following formula was used to calculate the entropy change (ΔS) and the Gibbs free energy (ΔG): ΔG=−RTln(55.5KITC)=ΔH−TΔS where: factor 55.5 is the molar concentration of water, R is the gas constant (1.986 cal·mol^−1·K^−1), and T is the absolute temperature.

[14] = Dynamic light scattering of lipopeptide assemblies; format: physicochemical; conditions: DLS, sonicated 10 min, incubated 1 h, 90° side scatter
Experimental: The hydrodynamic diameters of the lipopeptide nanoaggregates were examined by the Litesizer 500 (Anton-Paar GmbH, Graz, Austria) at 25 °C. The measurements were carried out at various lipopeptide concentrations ranging from 0.5 to 2 mM and from 0.25 to 2 mM, in water and PBS, respectively. Two-fold serial dilutions were used to obtain the sequential concentrations. Each sample was sonicated for 10 min followed by incubation for 1 h at 25 °C and transferred to the polystyrene cuvette. The detector was positioned at a side scatter position (90°). The analysis of the obtained results and report generation was performed with KalliopeTM software (Anton-Paar GmbH, Graz, Austria).

CCCCCCCC(=O)N[C@@H](CCCCN)C(=O)N[C@@H](CCCNC(=N)N)C(=O)N[C@@H](Cc1ccccc1)C(=O)N[C@@H](CCCCN)C(=O)N[C@@H](CCCCN)C(=O)N[C@@H](Cc1ccccc1)C(=O)N[C@@H](Cc1ccccc1)C(=O)N[C@@H](CCCCN)C(=O)N[C@@H](CCCCN)C(=O)N[C@@H](CC(C)C)C(=O)N[C@@H](CCCCN)C(N)=O [C8-ATRA-1] (Octanoyl-KRFKKFFKKLK-NH2)
MIC, S. aureus PCM2054 [1]: 7.8 µg/mL (≈ 4.81 µM)
MIC, S. epidermidis PCM2118 [2]: 3.13 µg/mL (≈ 1.93 µM)
MIC, S. epidermidis PCM521 [3]: 3.13 µg/mL (≈ 1.93 µM)
MIC, E. coli PCM2057 [4]: >50 µg/mL
MIC, C. albicans PCM2566 [5]: >50 µg/mL
MIC, C. glabrata CCM8270 [6]: >50 µg/mL
MIC, C. krusei CCM8271 [7]: 12.5 µg/mL (≈ 7.7 µM)
MIC, C. parapsilosis CCM 8260 [8]: 50 µg/mL (≈ 30.8 µM)
SI MCF-7 [9]: 8.55
SI PC3 [10]: 2.29
θ222/θ208, POPC [11]: 0.38
α-Helix percentage, POPC [11]: 11%
α-Helix percentage, POPG [12]: 20%
pKITC, POPG [13]: 5.78 ± 0.27

CCCCCCCCCC(=O)N[C@@H](CCCCN)C(=O)N[C@@H](CCCNC(=N)N)C(=O)N[C@@H](Cc1ccccc1)C(=O)N[C@@H](CCCCN)C(=O)N[C@@H](CCCCN)C(=O)N[C@@H](Cc1ccccc1)C(=O)N[C@@H](Cc1ccccc1)C(=O)N[C@@H](CCCCN)C(=O)N[C@@H](CCCCN)C(=O)N[C@@H](CC(C)C)C(=O)N[C@@H](CCCCN)C(N)=O [C10-ATRA-1] (Decanoyl-KRFKKFFKKLK-NH2)
MIC, S. aureus PCM2054 [1]: 3.9 µg/mL (≈ 2.36 µM)
MIC, S. epidermidis PCM2118 [2]: 3.13 µg/mL (≈ 1.9 µM)
MIC, S. epidermidis PCM521 [3]: 3.13 µg/mL (≈ 1.9 µM)
MIC, E. coli PCM2057 [4]: 31.25 µg/mL (≈ 18.9 µM)
MIC, C. albicans PCM2566 [5]: 50 µg/mL (≈ 30.3 µM)
MIC, C. glabrata CCM8270 [6]: >50 µg/mL
MIC, C. krusei CCM8271 [7]: 12.5 µg/mL (≈ 7.57 µM)
MIC, C. parapsilosis CCM 8260 [8]: 25 µg/mL (≈ 15.1 µM)
SI MCF-7 [9]: 9.47
SI PC3 [10]: 3.92
hydrodynamic diameter, peak of highest scattering intensity ([14]; 0.25 mM in PBS pH 7.4, 25 °C): 2808 ± 1193 nm
hydrodynamic diameter, peak of highest scattering intensity ([14]; 0.5 mM salt-free aqueous solution, 25 °C): 284 ± 105 nm
hydrodynamic diameter ([14]; 2 mM in PBS pH 7.4, 25 °C): 1040 ± 343 nm
θ222/θ208, POPC [11]: 0.65
α-Helix percentage, POPC [11]: 14%
α-Helix percentage, POPG [12]: 17%
pKITC, POPG [13]: 7.06 ± 0.61
